# In patent US10787452B2 (Vertex Pharmaceuticals Incorporated, priority 2012, dated 2020):
# Test system: HCT116 colorectal cancer cells
# Experiment: Cisplatin sensitization assay (96 h cell viability MTS);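 also: compound concentration needed to lower the Cisplatin-alone IC50 by a set fold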
# Format: cell-based
# Conditions: 96 h MTS, compound plus Cisplatin
# Method in brief: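 Viability is measured with MTS reagent, added after 96 h and developed for 1 h at 37° C. Beforehand, cells receive compound and cisplatin simultaneously in a concentration matrix of 2-fold serial dilutions starting at 10 μM final.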
row,Structure (SMILES),Cisplatin Sensitization Assay
1,"Nc1nn2cc(F)cnc2c1C(=O)Nc1cncc(F)c1N1CCC(C(=O)N2CCOCC2)CC1 [I-G-36, 2-amino-6-fluoro-N-(5-fluoro-4-(4-(morpholine-4-carbonyl)piperidin-1-yl)pyridin-3-yl)pyrazolo[1,5-a]pyrimidine-3-carboxamide]",+++ (Compounds with a Cisplatin sensitization value of <0.02 μM are marked with “+++.”)
2,"CNc1cc(OC)c(NC(=O)c2c(N)nn3cc(F)cnc23)cn1 [I-O-90, 2-amino-6-fluoro-N-(4-methoxy-6-(methylamino)pyridin-3-yl)pyrazolo[1,5-a]pyrimidine-3-carboxamide]",+ (Compounds with a Cisplatin sensitization value >0.2 μM but <5 μM are marked with “+.”)
3,"N#CCc1cnc2c(C(=O)Nc3cnccc3OCCO)c(N)nn2c1 [I-O-33, 2-amino-6-(cyanomethyl)-N-(4-(2-hydroxyethoxy)pyridin-3-yl)pyrazolo[1,5-a]pyrimidine-3-carboxamide]",++ (Compounds with a Cisplatin sensitization value >0.02 μM but <0.2 μM are marked with “++.”)
4,"CN(C)CCOc1cc(Cl)ncc1NC(=O)c1c(N)nn2cc(Cl)cnc12 [I-O-68, 2-amino-6-chloro-N-(6-chloro-4-(2-(dimethylamino)ethoxy)pyridin-3-yl)pyrazolo[1,5-a]pyrimidine-3-carboxamide]",++ (Compounds with a Cisplatin sensitization value >0.02 μM but <0.2 μM are marked with “++.”)
5,"CN1CCN(C(=O)C2CCN(c3c(F)cncc3NC(=O)c3c(N)nn4cc(Cl)cnc34)CC2)CC1 [I-G-5, 2-amino-6-chloro-N-(5-fluoro-4-(4-(4-methylpiperazine-1-carbonyl)piperidin-1-yl)pyridin-3-yl)pyrazolo[1,5-a]pyrimidine-3-carboxamide]",+++ (Compounds with a Cisplatin sensitization value of <0.02 μM are marked with “+++.”)
6,"Nc1nn2cc(Cl)cnc2c1C(=O)Nc1cnccc1N1CC[S+]([O-])CC1 [I-N-68, 2-amino-6-chloro-N-(4-(1-oxidothiomorpholino)pyridin-3-yl)pyrazolo[1,5-a]pyrimidine-3-carboxamide]",+++ (Compounds with a Cisplatin sensitization value of <0.02 μM are marked with “+++.”)
7,"CN(C)C(=O)[C@H]1CC[C@@H](Oc2ccncc2NC(=O)c2c(N)nn3cc(F)cnc23)CC1 [I-O-17, 2-amino-N-(4-(((1s,4s)-4-(dimethylcarbamoyl)cyclohexyl)oxy)pyridin-3-yl)-6-fluoropyrazolo[1,5-a]pyrimidine-3-carboxamide]",+++ (Compounds with a Cisplatin sensitization value of <0.02 μM are marked with “+++.”)
8,"Nc1nn2cc(Cl)cnc2c1C(=O)Nc1cnccc1O[C@@H]1CCCNC1 [I-O-81, (R)-2-amino-6-chloro-N-(4-(piperidin-3-yloxy)pyridin-3-yl)pyrazolo[1,5-a]pyrimidine-3-carboxamide]",++ (Compounds with a Cisplatin sensitization value >0.02 μM but <0.2 μM are marked with “++.”)
9,"CN1CCN(c2ccncc2NC(=O)c2c(N)nn3cc(C(C)(C)C#N)cnc23)CC1 [I-N-76, 2-amino-6-(2-cyanopropan-2-yl)-N-(4-(4-methylpiperazin-1-yl)pyridin-3-yl)pyrazolo[1,5-a]pyrimidine-3-carboxamide]",+++ (Compounds with a Cisplatin sensitization value of <0.02 μM are marked with “+++.”)
10,"COc1ccncc1NC(=O)c1c(N)nn2cc(F)cnc12 [I-O-4, 2-amino-6-fluoro-N-(4-methoxypyridin-3-yl)pyrazolo[1,5-a]pyrimidine-3-carboxamide]",++ (Compounds with a Cisplatin sensitization value >0.02 μM but <0.2 μM are marked with “++.”)
11,"Nc1nn2cc(F)cnc2c1C(=O)Nc1cnccc1N1CCN2C(=O)CC[C@@H]2C1 [I-N-258, (R)-2-amino-6-fluoro-N-(4-(6-oxohexahydropyrrolo[1,2-a]pyrazin-2(1H)-yl)pyridin-3-yl)pyrazolo[1,5-a]pyrimidine-3-carboxamide]",++ (Compounds with a Cisplatin sensitization value >0.02 μM but <0.2 μM are marked with “++.”)
12,"CC(C#N)c1cnc2c(C(=O)Nc3cnccc3N3CCN(C4COC4)CC3)c(N)nn2c1 (centres unmarked) [I-N-143, 2-amino-6-(1-cyanoethyl)-N-(4-(4-(oxetan-3-yl)piperazin-1-yl)pyridin-3-yl)pyrazolo[1,5-a]pyrimidine-3-carboxamide]",++ (Compounds with a Cisplatin sensitization value >0.02 μM but <0.2 μM are marked with “++.”)
13,"Nc1nn2cc(F)cnc2c1C(=O)Nc1cnccc1N1CCN2CCC[C@H]2C1 [I-N-21, (S)-2-amino-6-fluoro-N-(4-(hexahydropyrrolo[1,2-a]pyrazin-2(1H)-yl)pyridin-3-yl)pyrazolo[1,5-a]pyrimidine-3-carboxamide]",+++ (Compounds with a Cisplatin sensitization value of <0.02 μM are marked with “+++.”)
14,"Nc1nn2cc(F)cnc2c1C(=O)Nc1cncc(Cl)c1N1CCC(C(=O)N2CCN3CCC2CC3)CC1 [I-G-66, N-(4-(4-(1,4-diazabicyclo[3.2.2]nonane-4-carbonyl)piperidin-1-yl)-5-chloropyridin-3-yl)-2-amino-6-fluoropyrazolo[1,5-a]pyrimidine-3-carboxamide]",+++ (Compounds with a Cisplatin sensitization value of <0.02 μM are marked with “+++.”)
15,"CCN1CCCC1C(=O)N1CCN(c2c(F)cncc2NC(=O)c2c(N)nn3cc(F)cnc23)CC1 (centres unmarked) [I-N-185, 2-amino-N-(4-(4-(1-ethylpyrrolidine-2-carbonyl)piperazin-1-yl)-5-fluoropyridin-3-yl)-6-fluoropyrazolo[1,5-a]pyrimidine-3-carboxamide]",++ (Compounds with a Cisplatin sensitization value >0.02 μM but <0.2 μM are marked with “++.”)
16,"CN1CCCN(c2ccncc2NC(=O)c2c(N)nn3cc(Cl)cnc23)CC1 [I-N-43, 2-amino-6-chloro-N-(4-(4-methyl-1,4-diazepan-1-yl)pyridin-3-yl)pyrazolo[1,5-a]pyrimidine-3-carboxamide]",++ (Compounds with a Cisplatin sensitization value >0.02 μM but <0.2 μM are marked with “++.”)
17,"CN1CCN(C(=O)c2cnc(-c3ccncc3NC(=O)c3c(N)nn4cc(F)cnc34)c(Cl)c2)CC1 [I-C-46, 2-amino-N-(3-chloro-5-(4-methylpiperazine-1-carbonyl)-[2,4′-bipyridin]-3′-yl)-6-fluoropyrazolo[1,5-a]pyrimidine-3-carboxamide]",+ (Compounds with a Cisplatin sensitization value >0.2 μM but <5 μM are marked with “+.”)
18,"CN1CCN(c2ccncc2NC(=O)c2c(N)nn3cc(F)cnc23)CC1=O [I-N-209, 2-amino-6-fluoro-N-(4-(4-methyl-3-oxopiperazin-1-yl)pyridin-3-yl)pyrazolo[1,5-a]pyrimidine-3-carboxamide]",+++ (Compounds with a Cisplatin sensitization value of <0.02 μM are marked with “+++.”)
19,"Nc1nn2cc(F)cnc2c1C(=O)Nc1cncc(F)c1N1CCN(C(=O)C2CN3CCC2CC3)CC1 (centres unmarked) [I-N-130, 2-amino-6-fluoro-N-(5-fluoro-4-(4-(quinuclidine-3-carbonyl)piperazin-1-yl)pyridin-3-yl)pyrazolo[1,5-a]pyrimidine-3-carboxamide]",++ (Compounds with a Cisplatin sensitization value >0.02 μM but <0.2 μM are marked with “++.”)
20,"Cc1nc(C(F)(F)F)cn1-c1ccncc1NC(=O)c1c(N)nn2cc(F)cnc12 [I-N-30, 2-amino-6-fluoro-N-(4-(2-methyl-4-(trifluoromethyl)-1H-imidazol-1-yl)pyridin-3-yl)pyrazolo[1,5-a]pyrimidine-3-carboxamide]",++ (Compounds with a Cisplatin sensitization value >0.02 μM but <0.2 μM are marked with “++.”)
21,"CN(C)C(=O)C1CCN(c2c(F)cncc2NC(=O)c2c(N)nn3cc(F)cnc23)CC1 [I-G-29, 2-amino-N-(4-(4-(dimethylcarbamoyl)piperidin-1-yl)-5-fluoropyridin-3-yl)-6-fluoropyrazolo[1,5-a]pyrimidine-3-carboxamide]",+++ (Compounds with a Cisplatin sensitization value of <0.02 μM are marked with “+++.”)
22,"Nc1nn2cc(F)cnc2c1C(=O)Nc1cnccc1-c1ccc(C(=O)N2CCN3CCC2CC3)cc1 [I-C-48, N-(4-(4-(1,4-diazabicyclo[3.2.2]nonane-4-carbonyl)phenyl)pyridin-3-yl)-2-amino-6-fluoropyrazolo[1,5-a]pyrimidine-3-carboxamide]",+++ (Compounds with a Cisplatin sensitization value of <0.02 μM are marked with “+++.”)
23,"Nc1nn2cc(Cl)cnc2c1C(=O)Nc1cnccc1OC1CCNCC1 [I-O-80, 2-amino-6-chloro-N-(4-(piperidin-4-yloxy)pyridin-3-yl)pyrazolo[1,5-a]pyrimidine-3-carboxamide]",+++ (Compounds with a Cisplatin sensitization value of <0.02 μM are marked with “+++.”)
24,"Nc1nn2cc(Cl)cnc2c1C(=O)Nc1cnccc1N1CCC(N2CC(F)(F)C2)CC1 [I-N-108, 2-amino-6-chloro-N-(4-(4-(3,3-difluoroazetidin-1-yl)piperidin-1-yl)pyridin-3-yl)pyrazolo[1,5-a]pyrimidine-3-carboxamide]",+++ (Compounds with a Cisplatin sensitization value of <0.02 μM are marked with “+++.”)
25,"COC1(C)CN(C(=O)C2CCN(c3ccncc3NC(=O)c3c(N)nn4cc(F)cnc34)CC2)C1 [I-G-79, 2-amino-6-fluoro-N-(4-(4-(3-methoxy-3-methylazetidine-1-carbonyl)piperidin-1-yl)pyridin-3-yl)pyrazolo[1,5-a]pyrimidine-3-carboxamide]",+++ (Compounds with a Cisplatin sensitization value of <0.02 μM are marked with “+++.”)
26,"Nc1nn2cc(F)cnc2c1C(=O)Nc1cnccc1N1CCN(S(=O)(=O)C2COC2)CC1 [I-N-195, 2-amino-6-fluoro-N-(4-(4-(oxetan-3-ylsulfonyl)piperazin-1-yl)pyridin-3-yl)pyrazolo[1,5-a]pyrimidine-3-carboxamide]",+++ (Compounds with a Cisplatin sensitization value of <0.02 μM are marked with “+++.”)
